In test [1] the target is Fibroblast growth factor receptor 4 (Homo sapiens) (UniProt P22455). The test can be described thus: Inhibition of FGFR4 at 0.1 uM; values are per cent of control.
Test [2] deals with T1, Cytoplasmic tyrosine-protein kinase BMX (Homo sapiens) (UniProt P51813).
T1 sequence (whole entry): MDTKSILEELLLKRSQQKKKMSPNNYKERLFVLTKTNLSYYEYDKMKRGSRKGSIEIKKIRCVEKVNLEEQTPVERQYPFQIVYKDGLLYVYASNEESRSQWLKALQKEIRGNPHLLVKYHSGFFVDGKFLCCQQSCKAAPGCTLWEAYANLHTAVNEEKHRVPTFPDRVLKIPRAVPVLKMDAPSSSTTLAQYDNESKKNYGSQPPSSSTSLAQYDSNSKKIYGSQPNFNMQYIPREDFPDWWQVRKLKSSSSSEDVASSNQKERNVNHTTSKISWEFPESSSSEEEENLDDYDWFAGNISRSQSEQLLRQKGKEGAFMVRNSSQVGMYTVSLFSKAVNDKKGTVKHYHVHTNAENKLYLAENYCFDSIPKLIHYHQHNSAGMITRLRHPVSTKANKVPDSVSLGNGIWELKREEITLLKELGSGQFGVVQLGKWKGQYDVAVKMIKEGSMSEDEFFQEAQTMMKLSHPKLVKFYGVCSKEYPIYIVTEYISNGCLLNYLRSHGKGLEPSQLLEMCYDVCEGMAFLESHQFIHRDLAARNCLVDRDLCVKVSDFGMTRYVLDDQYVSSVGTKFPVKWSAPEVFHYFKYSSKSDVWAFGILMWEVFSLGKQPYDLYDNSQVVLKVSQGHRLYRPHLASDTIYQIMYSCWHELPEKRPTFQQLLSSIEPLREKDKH
The test can be described thus: Inhibition of Bmx at 1 uM; values are per cent of control.

Test [3] concerns the target BDNF/NT-3 growth factors receptor (Homo sapiens) (UniProt Q16620). As to the kind of experiment: Inhibition of TrkB at 1 uM; values are per cent of control.
The target of test [4] is ALK tyrosine kinase receptor (Homo sapiens) (UniProt Q9UM73). As to the kind of experiment: Inhibition of ALK at 0.1 uM; values are per cent of control.
Test [5] addresses T2, Ephrin type-B receptor 2 (Homo sapiens) (UniProt P29323).
T2 sequence (whole entry): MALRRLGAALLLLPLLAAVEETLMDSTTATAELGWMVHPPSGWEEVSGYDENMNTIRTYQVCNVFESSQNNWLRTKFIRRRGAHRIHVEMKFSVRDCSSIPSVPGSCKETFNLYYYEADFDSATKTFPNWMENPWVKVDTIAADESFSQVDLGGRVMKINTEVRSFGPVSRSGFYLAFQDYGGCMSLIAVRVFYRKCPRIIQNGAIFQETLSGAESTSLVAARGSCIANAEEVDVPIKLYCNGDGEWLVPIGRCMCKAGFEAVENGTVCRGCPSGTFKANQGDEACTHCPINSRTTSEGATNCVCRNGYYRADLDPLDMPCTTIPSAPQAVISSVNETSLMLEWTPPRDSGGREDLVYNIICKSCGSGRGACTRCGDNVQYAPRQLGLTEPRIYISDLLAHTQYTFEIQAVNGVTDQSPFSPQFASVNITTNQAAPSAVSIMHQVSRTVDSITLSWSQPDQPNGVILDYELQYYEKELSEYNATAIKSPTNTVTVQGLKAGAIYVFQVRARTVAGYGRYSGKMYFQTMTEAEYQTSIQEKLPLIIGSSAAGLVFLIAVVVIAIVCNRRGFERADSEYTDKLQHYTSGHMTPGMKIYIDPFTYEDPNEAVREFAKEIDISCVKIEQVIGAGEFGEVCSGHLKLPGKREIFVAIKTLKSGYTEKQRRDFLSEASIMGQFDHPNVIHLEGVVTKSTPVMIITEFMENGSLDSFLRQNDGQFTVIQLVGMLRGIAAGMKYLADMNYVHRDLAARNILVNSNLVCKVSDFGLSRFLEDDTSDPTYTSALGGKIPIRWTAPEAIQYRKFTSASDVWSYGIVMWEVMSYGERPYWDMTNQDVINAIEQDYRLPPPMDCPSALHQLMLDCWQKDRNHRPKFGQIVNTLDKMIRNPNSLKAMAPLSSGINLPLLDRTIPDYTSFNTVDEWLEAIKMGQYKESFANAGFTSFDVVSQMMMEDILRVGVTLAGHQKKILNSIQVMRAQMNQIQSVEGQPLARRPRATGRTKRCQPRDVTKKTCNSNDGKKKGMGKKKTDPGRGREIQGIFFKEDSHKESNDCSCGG
The test can be described thus: Inhibition of EphB2 at 1 uM; values are per cent of control.

The target of test [6] is Ribosomal protein S6 kinase beta-1 (Homo sapiens) (UniProt P23443). The test can be described thus: Inhibition of p70S6K at 1 uM.
For test [7], the target named is T3, Aurora kinase A (Homo sapiens) (UniProt O14965).
T3 sequence (whole entry): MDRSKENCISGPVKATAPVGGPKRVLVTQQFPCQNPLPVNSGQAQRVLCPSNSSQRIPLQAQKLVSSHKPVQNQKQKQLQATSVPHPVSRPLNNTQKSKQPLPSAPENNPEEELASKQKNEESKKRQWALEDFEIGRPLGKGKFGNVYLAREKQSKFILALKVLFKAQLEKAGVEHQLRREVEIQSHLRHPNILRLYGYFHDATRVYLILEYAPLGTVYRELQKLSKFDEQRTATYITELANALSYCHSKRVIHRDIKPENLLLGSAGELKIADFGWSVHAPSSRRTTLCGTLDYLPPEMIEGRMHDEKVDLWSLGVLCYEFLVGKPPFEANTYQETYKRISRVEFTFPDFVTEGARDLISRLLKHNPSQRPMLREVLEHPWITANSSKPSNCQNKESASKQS
The test can be described thus: Inhibition of aurora-A at 1 uM; values are per cent of control.

The target of test [8] is T4, Serine/threonine-protein kinase Nek2 (Homo sapiens) (UniProt P51955).
T4 sequence (whole entry): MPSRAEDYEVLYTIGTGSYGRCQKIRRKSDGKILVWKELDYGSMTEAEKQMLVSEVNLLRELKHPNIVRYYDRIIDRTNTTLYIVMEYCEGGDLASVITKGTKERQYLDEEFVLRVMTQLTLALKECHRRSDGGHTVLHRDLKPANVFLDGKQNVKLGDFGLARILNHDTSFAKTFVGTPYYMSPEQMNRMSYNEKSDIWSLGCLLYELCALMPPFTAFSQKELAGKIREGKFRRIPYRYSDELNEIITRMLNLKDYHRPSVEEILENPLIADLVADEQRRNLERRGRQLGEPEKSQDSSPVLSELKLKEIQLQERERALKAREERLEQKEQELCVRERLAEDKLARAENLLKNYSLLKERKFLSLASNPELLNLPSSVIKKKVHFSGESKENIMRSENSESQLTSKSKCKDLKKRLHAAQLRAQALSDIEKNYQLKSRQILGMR
As to the kind of experiment: Inhibition of NEK2 at 0.1 uM; values are per cent of control.

BDNF/NT-3 growth factors receptor (Homo sapiens), sequence (Q16620 32-822 limits assumed): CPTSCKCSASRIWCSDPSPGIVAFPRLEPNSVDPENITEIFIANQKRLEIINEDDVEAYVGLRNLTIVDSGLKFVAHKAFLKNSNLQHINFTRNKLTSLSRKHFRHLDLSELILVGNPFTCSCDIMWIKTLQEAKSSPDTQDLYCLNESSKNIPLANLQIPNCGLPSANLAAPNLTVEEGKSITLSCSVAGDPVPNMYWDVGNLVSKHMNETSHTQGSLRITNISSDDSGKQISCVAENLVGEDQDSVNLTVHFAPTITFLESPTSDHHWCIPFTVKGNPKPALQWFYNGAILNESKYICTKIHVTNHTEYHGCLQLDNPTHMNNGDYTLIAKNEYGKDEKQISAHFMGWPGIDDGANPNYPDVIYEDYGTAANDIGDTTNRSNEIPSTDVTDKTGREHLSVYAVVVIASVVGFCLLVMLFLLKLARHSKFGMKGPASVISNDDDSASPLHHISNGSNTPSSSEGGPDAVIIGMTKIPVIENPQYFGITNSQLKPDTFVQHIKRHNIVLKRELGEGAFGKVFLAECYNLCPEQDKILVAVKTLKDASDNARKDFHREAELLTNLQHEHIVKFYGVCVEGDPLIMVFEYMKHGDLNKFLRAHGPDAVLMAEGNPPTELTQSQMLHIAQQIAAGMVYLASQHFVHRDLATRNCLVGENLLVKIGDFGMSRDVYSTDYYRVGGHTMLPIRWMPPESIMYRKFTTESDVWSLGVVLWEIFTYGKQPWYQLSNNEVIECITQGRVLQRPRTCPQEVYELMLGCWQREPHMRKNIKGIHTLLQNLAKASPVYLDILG
ALK tyrosine kinase receptor (Homo sapiens), sequence (Q9UM73 19-1620 limits assumed): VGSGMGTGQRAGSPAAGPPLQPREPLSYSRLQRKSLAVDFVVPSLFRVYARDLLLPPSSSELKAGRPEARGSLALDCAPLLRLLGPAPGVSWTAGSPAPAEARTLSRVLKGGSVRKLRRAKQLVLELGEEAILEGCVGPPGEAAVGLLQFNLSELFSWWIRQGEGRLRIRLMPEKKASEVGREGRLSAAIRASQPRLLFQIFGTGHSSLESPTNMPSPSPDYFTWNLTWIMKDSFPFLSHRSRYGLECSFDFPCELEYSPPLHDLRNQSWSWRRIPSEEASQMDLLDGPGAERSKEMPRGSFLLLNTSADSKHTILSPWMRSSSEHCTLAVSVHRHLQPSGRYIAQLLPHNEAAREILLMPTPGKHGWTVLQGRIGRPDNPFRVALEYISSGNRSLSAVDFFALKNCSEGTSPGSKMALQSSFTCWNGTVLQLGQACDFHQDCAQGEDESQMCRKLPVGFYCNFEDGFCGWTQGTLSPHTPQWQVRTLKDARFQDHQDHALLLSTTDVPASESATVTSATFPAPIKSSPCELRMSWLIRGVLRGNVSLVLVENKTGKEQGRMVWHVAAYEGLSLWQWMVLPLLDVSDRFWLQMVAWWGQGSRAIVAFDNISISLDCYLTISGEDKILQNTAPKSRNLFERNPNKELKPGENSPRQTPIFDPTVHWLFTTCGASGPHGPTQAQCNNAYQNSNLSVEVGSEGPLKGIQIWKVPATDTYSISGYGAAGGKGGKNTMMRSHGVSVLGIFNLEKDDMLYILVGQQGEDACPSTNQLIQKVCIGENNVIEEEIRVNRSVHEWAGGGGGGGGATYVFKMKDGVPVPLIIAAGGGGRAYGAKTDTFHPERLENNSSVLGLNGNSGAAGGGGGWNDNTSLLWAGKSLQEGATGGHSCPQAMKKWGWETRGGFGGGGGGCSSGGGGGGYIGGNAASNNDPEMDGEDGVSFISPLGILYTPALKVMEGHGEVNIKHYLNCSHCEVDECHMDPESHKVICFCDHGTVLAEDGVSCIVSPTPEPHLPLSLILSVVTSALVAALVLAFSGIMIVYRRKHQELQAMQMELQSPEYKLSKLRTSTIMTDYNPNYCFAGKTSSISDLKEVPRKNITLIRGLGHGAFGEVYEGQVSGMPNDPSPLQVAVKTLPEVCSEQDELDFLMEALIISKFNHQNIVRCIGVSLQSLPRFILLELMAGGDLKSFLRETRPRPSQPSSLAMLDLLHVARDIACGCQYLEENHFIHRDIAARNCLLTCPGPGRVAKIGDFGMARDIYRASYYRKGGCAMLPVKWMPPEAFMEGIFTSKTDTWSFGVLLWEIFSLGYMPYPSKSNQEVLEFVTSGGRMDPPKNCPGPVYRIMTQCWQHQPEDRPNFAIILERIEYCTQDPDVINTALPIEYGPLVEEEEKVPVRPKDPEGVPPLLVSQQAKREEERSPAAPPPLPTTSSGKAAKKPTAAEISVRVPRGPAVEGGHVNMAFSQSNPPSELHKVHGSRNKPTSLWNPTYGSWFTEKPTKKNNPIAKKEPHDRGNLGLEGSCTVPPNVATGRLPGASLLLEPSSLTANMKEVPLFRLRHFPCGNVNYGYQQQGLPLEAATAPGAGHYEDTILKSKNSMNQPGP
Ribosomal protein S6 kinase beta-1 (Homo sapiens), sequence (P23443 whole entry, looked up): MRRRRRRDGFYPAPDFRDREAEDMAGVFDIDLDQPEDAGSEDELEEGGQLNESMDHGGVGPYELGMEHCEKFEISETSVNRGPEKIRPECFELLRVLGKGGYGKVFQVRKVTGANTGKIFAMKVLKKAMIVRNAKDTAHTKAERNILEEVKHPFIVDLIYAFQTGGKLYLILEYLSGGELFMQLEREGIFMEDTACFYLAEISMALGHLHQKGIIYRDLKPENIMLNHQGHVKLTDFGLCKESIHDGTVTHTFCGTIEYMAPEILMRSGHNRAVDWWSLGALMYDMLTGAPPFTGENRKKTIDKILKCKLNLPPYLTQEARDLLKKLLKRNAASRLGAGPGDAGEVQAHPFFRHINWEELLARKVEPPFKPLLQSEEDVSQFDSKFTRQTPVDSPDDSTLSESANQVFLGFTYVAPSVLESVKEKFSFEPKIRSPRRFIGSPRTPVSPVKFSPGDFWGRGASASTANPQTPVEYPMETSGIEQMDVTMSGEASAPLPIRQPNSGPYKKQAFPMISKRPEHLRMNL
Fibroblast growth factor receptor 4 (Homo sapiens), sequence (P22455 22-802 limits assumed): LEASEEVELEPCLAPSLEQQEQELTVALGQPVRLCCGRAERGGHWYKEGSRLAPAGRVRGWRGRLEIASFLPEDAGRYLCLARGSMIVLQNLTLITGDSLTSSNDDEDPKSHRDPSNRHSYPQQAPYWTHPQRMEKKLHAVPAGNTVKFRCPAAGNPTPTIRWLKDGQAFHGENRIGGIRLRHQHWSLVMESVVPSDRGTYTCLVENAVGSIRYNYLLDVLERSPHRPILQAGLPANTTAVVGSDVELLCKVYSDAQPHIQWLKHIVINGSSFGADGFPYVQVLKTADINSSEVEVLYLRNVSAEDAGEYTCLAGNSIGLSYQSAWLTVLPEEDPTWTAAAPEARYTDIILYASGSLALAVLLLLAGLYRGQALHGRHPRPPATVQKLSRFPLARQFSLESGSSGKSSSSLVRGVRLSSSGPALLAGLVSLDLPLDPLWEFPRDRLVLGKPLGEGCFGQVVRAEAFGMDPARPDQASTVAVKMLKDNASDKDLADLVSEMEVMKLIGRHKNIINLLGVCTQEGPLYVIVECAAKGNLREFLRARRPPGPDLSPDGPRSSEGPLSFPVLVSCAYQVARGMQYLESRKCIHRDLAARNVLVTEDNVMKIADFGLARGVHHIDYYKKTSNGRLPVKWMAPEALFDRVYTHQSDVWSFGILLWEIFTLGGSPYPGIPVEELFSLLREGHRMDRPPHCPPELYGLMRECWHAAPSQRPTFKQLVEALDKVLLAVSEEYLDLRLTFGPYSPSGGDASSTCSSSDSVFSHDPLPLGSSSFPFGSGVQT

For the compound `Cc1ccc2cc(-c3n[nH]c4ccc(NC5CCNC5)cc34)[nH]c2c1` (stereo unspecified), the residual activity is 63% in test [1]; -7% in test [2]; 1% in test [3]; 27% in test [4]; 74% in test [5]; 0% in test [7]. In test [8], the residual activity stood at 79%. Moreover, the inhibition in test [6] turned out to be 16%.
Turning to `Cc1ccc2cc(-c3n[nH]c4ccc(NC5CCN(Cc6ccccc6)CC5)cc34)[nH]c2c1`, the residual activity was 65% in test [1]; 8% in test [2]; 0% in test [3]; 47% in test [4]; 75% in test [5]; -7% in test [7]. In addition, the residual activity in test [8] amounted to 91%. The compound also had an inhibition in test [6] of 10%.

In general, residual activity refers to the signal under treatment as a percentage of the control signal. One may read the inhibition as the share of the control response that was lost under treatment. Lower therefore signals little suppression.

The values are drawn from ChEMBL document CHEMBL1681705, “Optimisation of ITK inhibitors through successive iterative design cycles” (Bioorg Med Chem Lett, 2011).
